Like-named read-outs stand apart in the source and are kept apart here.
How the values were obtained:
PRC2 containing wt EZH2 = PRC2 containing wt EZH2 (Homo sapiens (Human), UniProt Q15910); assay: EZH2 biochemical assay (IC50), 3H-SAM incorporation into biotinylated H3 peptide; conditions: 30 pM PRC2 containing wt EZH2, 3-5 h pre-incubation
Method in brief: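 Activity was measured as ³H-methyl transfer to a biotinylated H3K27me1 peptide over 18-22 h at room temperature, with capture on streptavidin flash plates. The 30 pM wt-EZH2 PRC2 complex was first pre-incubated 3-5 h with compound, 450 nM SAM/450 nM ³H-SAM and 2 µM H3K27me3 activator (pH 8.5, 0.8% DMSO). Four-parameter fits gave IC50.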

[1] = system: H3K27me3 mark in HeLa cells (EZH2); assay: H3K27me3 Alpha Hela Assay (AlphaLISA); type: cell-based; conditions: HeLa cells, 72 hrs, read-out: EZH2 Cell H3K27me3 Alpha HeLa (EC50 K27me3)
Method in brief: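 HeLa cells (1,000/well) treated with ten 3-fold compound doses for 72 h at 37 °C; lysates extracted and H3K27me3 detected by AlphaLISA with anti-K27me3 acceptor beads, biotinylated anti-H3 (3 nM) and streptavidin donor beads. EC50 from DMSO-normalized dose-response curves; duplicate plate assessed viability.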

Chain of PRC2 containing wt EZH2 (Q15910 whole entry): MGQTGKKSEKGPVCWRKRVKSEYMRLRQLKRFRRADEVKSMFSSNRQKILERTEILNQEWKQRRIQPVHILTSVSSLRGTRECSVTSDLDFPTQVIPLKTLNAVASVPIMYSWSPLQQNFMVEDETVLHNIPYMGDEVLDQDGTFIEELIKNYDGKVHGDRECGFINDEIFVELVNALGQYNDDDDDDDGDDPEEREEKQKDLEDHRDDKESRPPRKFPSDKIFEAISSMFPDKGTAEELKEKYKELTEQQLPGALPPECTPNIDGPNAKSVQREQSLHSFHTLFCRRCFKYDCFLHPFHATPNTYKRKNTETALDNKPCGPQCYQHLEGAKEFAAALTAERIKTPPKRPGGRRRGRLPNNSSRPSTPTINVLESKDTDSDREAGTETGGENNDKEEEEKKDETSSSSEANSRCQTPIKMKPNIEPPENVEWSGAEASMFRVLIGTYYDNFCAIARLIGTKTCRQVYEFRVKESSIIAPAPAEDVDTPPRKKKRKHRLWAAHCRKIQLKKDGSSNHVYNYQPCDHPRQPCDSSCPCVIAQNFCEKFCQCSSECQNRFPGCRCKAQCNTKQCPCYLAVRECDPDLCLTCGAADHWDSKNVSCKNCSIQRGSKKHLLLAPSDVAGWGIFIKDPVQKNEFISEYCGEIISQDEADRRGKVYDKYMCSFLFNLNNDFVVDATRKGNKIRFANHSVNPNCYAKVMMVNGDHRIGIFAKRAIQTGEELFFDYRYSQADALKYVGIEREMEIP
Chain of PRC2 containing wt EZH2 (O75530 whole entry partner): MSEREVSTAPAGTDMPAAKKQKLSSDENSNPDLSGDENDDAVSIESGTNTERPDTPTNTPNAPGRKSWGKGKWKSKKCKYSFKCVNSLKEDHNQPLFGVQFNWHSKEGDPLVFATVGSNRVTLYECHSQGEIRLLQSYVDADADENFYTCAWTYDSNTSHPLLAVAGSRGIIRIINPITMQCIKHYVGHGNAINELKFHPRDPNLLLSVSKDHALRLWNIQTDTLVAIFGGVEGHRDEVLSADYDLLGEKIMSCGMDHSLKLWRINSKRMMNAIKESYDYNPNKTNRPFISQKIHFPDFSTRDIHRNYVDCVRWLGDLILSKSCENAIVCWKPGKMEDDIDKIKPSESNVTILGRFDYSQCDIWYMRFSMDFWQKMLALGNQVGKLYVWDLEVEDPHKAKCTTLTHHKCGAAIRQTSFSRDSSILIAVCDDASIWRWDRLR
Chain of PRC2 containing wt EZH2 (Q15022 whole entry partner): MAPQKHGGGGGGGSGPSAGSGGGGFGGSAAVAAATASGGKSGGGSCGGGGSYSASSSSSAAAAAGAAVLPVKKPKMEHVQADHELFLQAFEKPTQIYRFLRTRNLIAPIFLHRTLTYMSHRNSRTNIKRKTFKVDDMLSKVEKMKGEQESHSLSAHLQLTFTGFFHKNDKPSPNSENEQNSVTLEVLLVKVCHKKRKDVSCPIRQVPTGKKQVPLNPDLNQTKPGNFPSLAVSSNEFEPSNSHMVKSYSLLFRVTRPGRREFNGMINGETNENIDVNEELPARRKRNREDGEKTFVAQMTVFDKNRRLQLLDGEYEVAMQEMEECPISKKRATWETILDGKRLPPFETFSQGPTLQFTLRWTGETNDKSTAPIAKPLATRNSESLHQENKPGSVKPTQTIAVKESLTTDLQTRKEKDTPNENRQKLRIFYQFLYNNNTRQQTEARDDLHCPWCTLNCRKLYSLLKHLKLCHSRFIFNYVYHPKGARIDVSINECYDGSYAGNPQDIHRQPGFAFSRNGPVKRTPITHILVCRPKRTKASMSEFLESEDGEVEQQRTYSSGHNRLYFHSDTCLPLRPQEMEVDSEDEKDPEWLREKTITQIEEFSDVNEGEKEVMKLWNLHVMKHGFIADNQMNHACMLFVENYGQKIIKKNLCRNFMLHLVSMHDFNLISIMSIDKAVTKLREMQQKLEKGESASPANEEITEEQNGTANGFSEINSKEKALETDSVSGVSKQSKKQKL
Chain of PRC2 containing wt EZH2 (Q09028 whole entry partner): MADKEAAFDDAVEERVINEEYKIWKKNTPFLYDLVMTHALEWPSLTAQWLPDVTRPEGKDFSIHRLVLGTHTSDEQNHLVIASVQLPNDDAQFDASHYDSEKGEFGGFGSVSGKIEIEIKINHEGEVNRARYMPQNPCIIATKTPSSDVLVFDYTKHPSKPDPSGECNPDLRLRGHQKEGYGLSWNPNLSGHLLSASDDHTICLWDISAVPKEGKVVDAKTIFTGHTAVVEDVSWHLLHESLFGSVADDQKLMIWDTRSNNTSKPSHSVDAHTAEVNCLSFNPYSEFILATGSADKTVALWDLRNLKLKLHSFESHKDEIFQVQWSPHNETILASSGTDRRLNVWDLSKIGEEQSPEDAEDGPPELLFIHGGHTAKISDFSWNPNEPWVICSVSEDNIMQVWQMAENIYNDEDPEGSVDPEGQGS
Chain of PRC2 containing wt EZH2 (Q6ZN18 whole entry partner): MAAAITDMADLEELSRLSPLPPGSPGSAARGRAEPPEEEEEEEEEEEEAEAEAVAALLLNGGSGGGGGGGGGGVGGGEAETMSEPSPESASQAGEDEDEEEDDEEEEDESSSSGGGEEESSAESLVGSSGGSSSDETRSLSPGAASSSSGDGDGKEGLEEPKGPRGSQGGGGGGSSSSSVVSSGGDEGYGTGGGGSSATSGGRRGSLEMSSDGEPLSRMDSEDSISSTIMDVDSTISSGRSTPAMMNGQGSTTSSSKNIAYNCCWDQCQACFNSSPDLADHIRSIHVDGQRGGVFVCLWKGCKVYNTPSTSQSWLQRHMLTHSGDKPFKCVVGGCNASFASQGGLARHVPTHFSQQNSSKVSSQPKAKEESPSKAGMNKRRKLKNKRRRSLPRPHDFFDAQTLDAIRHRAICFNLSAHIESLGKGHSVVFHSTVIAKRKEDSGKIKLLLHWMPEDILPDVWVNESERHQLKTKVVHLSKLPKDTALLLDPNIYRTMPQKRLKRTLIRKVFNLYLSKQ

SMILES	IC50 (PRC2 containing wt EZH2; EZH2 (IC50)) [nM]	EC50 ([1]; Homo sapiens, HeLa, 72 h) [nM]	IC50 (PRC2 containing wt EZH2; read-out: EZH2 (IC50)) [nM]	EC50 [1] [nM]
CSc1cc(C)[nH]c(=O)c1CNC(=O)c1c(C)n([C@H](C)C2CCN(CC(F)(F)F)CC2)c2cc(F)ccc12 [Example 92, (R)-6-fluoro-2-methyl-N-((6-methyl-4-(methylthio)-2-oxo-1,2-dihydropyridin-3-yl)methyl)-1-(1-(1-(2,2,2-trifluoroethyl)piperidin-4-yl)ethyl)-1H-indole-3-carboxamide]	< 0.5	< 10	–	–
CCCC(=O)OC1CCC([C@@H](C)n2c(C)c(C(=O)NCc3c(SC)cc(C)[nH]c3=O)c3ccccc32)CC1 (single isomer, unassigned) [143 (isomer 1)]	–	< 10	< 0.5	–
CSc1cc(C)[nH]c(=O)c1CNC(=O)c1c(C)n([C@H](C)[C@H]2CCN(C3CC3)C[C@H]2F)c2ccccc12 [Example 56, 1-((R)-1-((3S,4R)-1-cyclopropyl-3-fluoropiperidin-4-yl)ethyl)-2-methyl-N-((6-methyl-4-(methylthio)-2-oxo-1,2-dihydropyridin-3-yl)methyl)-1H-indole-3-carboxamide]	< 0.5	< 10	–	–
CSc1cc(C)[nH]c(=O)c1CNC(=O)c1c(C)n([C@H](C)C23CC(NC4COC4)(C2)C3)c2ccccc12 [Example 8, (R)-2-methyl-N-((6-methyl-4-(methylthio)-2-oxo-1,2-dihydropyridin-3-yl)methyl)-1-(1-(3-(oxetan-3-ylamino)bicyclo[1.1.1]pentan-1-yl)ethyl)-1H-indole-3-carboxamide]	–	< 10	< 0.5	–
CSc1cc(C)[nH]c(=O)c1CNC(=O)c1c(C)n([C@H](C)C2CCN(C(=O)CN(C)C)CC2)c2ccccc12 [Example 142, (R)-1-(1-(1-(dimethylglycyl)piperidin-4-yl)ethyl)-2-methyl-N-((6-methyl-4-(methylthio)-2-oxo-1,2-dihydropyridin-3-yl)methyl)-1H-indole-3-carboxamide]	–	> 100	< 0.5	–
COC1(C)CN(C2CCC([C@@H](C)n3c(C)c(C(=O)NCc4c(SC)cc(C)[nH]c4=O)c4ccccc43)CC2)C1 (single isomer, unassigned) [90 (isomer 1)]	–	–	< 0.5	10 to 100
CSc1cc(C)[nH]c(=O)c1CNC(=O)c1c(C)n([C@H](C)C2CCC(OC3CN(C)C3)CC2)c2ncccc12 (single isomer, unassigned) [145 (isomer 1)]	0.5 to 5	> 100	–	–
CSc1cc(C)[nH]c(=O)c1CNC(=O)c1c(C)n([C@H](C)C2CCC(NC3(CF)COC3)CC2)c2ccccc12 (single isomer, unassigned) [154 (isomer 2)]	–	–	< 0.5	< 10
COC1CCC([C@@H](C)n2c(C)c(C(=O)NCc3c(SC)cc(C)[nH]c3=O)c3cncnc32)CC1 (single isomer, unassigned) [41 (isomer 1)]	< 0.5	< 10	–	–
CSc1cc(C)[nH]c(=O)c1CNC(=O)c1c(C)n([C@H](C)C2CCC(OC(C)=O)CC2)c2ccccc12 (single isomer, unassigned) [134 (isomer 2)]	–	–	< 0.5	< 10
CSc1cc(C)[nH]c(=O)c1CNC(=O)c1c(C)n([C@H](C)C2CCC(N3CCC(F)(F)C3)CC2)c2ccccc12 (stereo partly drawn) [Example 95, 1-((R)-1-(4-(3,3-difluoropyrrolidin-1-yl)cyclohexyl)ethyl)-2-methyl-N-((6-methyl-4-(methylthio)-2-oxo-1,2-dihydropyridin-3-yl)methyl)-1H-indole-3-carboxamide]	–	< 10	< 0.5	–
COc1cnc2c(c1)c(C(=O)NCc1c(SC)cc(C)[nH]c1=O)c(C)n2[C@H](C)C1CCC(N2CC(OC(F)F)C2)CC1 (single isomer, unassigned) [125 (isomer 1)]	–	< 10	< 0.5	–
CSc1cc(C)[nH]c(=O)c1CNC(=O)c1c(C)n([C@H](C)C2CCC(N(C)C)CC2)c2ncccc12 (single isomer, unassigned) [51 (isomer 2)]	–	–	< 0.5	> 100
CSc1cc(C)[nH]c(=O)c1CNC(=O)c1c(C)n([C@@H](C)C2CN(CC(F)(F)F)C2)c2ccccc12 [Example 55, (S)-2-methyl-N-((6-methyl-4-(methylthio)-2-oxo-1,2-dihydropyridin-3-yl)methyl)-1-(1-(1-(2,2,2-trifluoroethyl)azetidin-3-yl)ethyl)-1H-indole-3-carboxamide]	0.5 to 5	10 to 100	–	–
CO[C@@H]1CN(C2CCC([C@@H](C)n3c(C)c(C(=O)NCc4c(SC)cc(C)[nH]c4=O)c4cccnc43)CC2)C[C@H]1F (single isomer, unassigned) [104 (isomer 1)]	–	–	0.5 to 5	10 to 100
CSc1cc(C)[nH]c(=O)c1CNC(=O)c1c(C)n([C@H](C)C2CC(NC3COC3)C2)c2ccccc12 (stereo partly drawn) [Example 49, 2-methyl-N-((6-methyl-4-(methylthio)-2-oxo-1,2-dihydropyridin-3-yl)methyl)-1-((R)-1-(3-(oxetan-3-ylamino)cyclobutyl)ethyl)-1H-indole-3-carboxamide]	–	> 100	0.5 to 5	–
CSc1cc(C)[nH]c(=O)c1CNC(=O)c1c(C)n([C@@H](C)c2ccc(N(C)C)cc2)c2ccccc12 [Example 47, (S)-1-(1-(4-(dimethylamino)phenyl)ethyl)-2-methyl-N-((6-methyl-4-(methylthio)-2-oxo-1,2-dihydropyridin-3-yl)methyl)-1H-indole-3-carboxamide]	0.5 to 5	> 100	–	–
CSc1cc(C)[nH]c(=O)c1CNC(=O)c1c(C)n([C@H](C)[C@@H]2CCN(C3CC3)CC2(F)F)c2ncccc12 (single isomer, unassigned) [70 (isomer 2)]	0.5 to 5	> 100	–	–
CSc1cc(C)[nH]c(=O)c1CNC(=O)c1c(C)n([C@H](C)C2CCC(N3CC(F)(F)C3)CC2)c2ccccc12 (single isomer, unassigned) [23 (isomer 1)]	0.5 to 5	10 to 100	–	–
CSc1cc(C)[nH]c(=O)c1CNC(=O)c1c(C)n([C@H](C)C2CCN(CC(F)(F)F)CC2)c2ccccc12 [Example 12, (R)-2-methyl-N-((6-methyl-4-(methylthio)-2-oxo-1,2-dihydropyridin-3-yl)methyl)-1-(1-(1-(2,2,2-trifluoroethyl)piperidin-4-yl)ethyl)-1H-indole-3-carboxamide]	< 0.5	< 10	–	–
CSc1cc(C)[nH]c(=O)c1CNC(=O)c1c(C)n([C@H](C)C2CCN(CC(F)(F)F)CC2)c2ncccc12 [Example 25, (R)-2-methyl-N-((6-methyl-4-(methylthio)-2-oxo-1,2-dihydropyridin-3-yl)methyl)-1-(1-(1-(2,2,2-trifluoroethyl)piperidin-4-yl)ethyl)-1H-pyrrolo[2,3-b]pyridine-3-carboxamide]	< 0.5	< 10	–	–
CSc1cc(C)[nH]c(=O)c1CNC(=O)c1c(C)n([C@H](C)C2CCC(N3CC(C(F)F)C3)CC2)c2ncccc12 (stereo partly drawn) [Example 96, 1-((R)-1-(4-(3-(difluoromethyl)azetidin-1-yl)cyclohexyl)ethyl)-2-methyl-N-((6-methyl-4-(methylthio)-2-oxo-1,2-dihydropyridin-3-yl)methyl)-1H-pyrrolo[2,3-b]pyridine-3-carboxamide]	–	< 10	< 0.5	–
CSc1cc(C)[nH]c(=O)c1CNC(=O)c1c(C)n([C@H](C)C2CCC(NC3(CO)COC3)CC2)c2cc(F)ccc12 (single isomer, unassigned) [159 (isomer 2)]	–	–	< 0.5	10 to 100
CSc1cc(C)[nH]c(=O)c1CNC(=O)c1c(C)n([C@H](C)C2CCC(NC3(CF)COC3)CC2)c2ccccc12 (single isomer, unassigned) [154 (isomer 1)]	–	10 to 100	< 0.5	–
COC1CC(N2CC[C@H]([C@@H](C)n3c(C)c(C(=O)NCc4c(SC)cc(C)[nH]c4=O)c4ccccc43)[C@@H](F)C2)C1 (stereo partly drawn) [Example 152, 1-((R)-1-((3R,4R)-3-fluoro-1-(3-methoxycyclobutyl)piperidin-4-yl)ethyl)-2-methyl-N-((6-methyl-4-(methylthio)-2-oxo-1,2-dihydropyridin-3-yl)methyl)-1H-indole-3-carboxamide]	–	< 10	< 0.5	–
CSc1cc(C)[nH]c(=O)c1CNC(=O)c1c(C)n([C@H](C)[C@H]2CCN(C)[C@H](C(F)(F)F)C2)c2ccccc12 [Example 71, 2-methyl-1-((R)-1-((2S,4S)-1-methyl-2-(trifluoromethyl)piperidin-4-yl)ethyl)-N-((6-methyl-4-(methylthio)-2-oxo-1,2-dihydropyridin-3-yl)methyl)-1H-indole-3-carboxamide]	< 0.5	< 10	–	–
CSc1cc(C)[nH]c(=O)c1CNC(=O)c1c(C)n([C@H](C)C2CCC(OC(C)=O)CC2)c2ccccc12 (single isomer, unassigned) [134 (isomer 1)]	–	< 10	< 0.5	–
CSc1cc(C)[nH]c(=O)c1CNC(=O)c1c(C)n([C@H](C)C2CCN(C#N)CC2)c2ccccc12 [Example 39, (R)-1-(1-(1-cyanopiperidin-4-yl)ethyl)-2-methyl-N-((6-methyl-4-(methylthio)-2-oxo-1,2-dihydropyridin-3-yl)methyl)-1H-indole-3-carboxamide]	< 0.5	10 to 100	–	–

— patent US11459315B2, “Modulators of methyl modifying enzymes, compositions and uses thereof” (Constellation Pharmaceuticals, Inc., priority 2017, dated 2022)
